From patent US11246929B2, “Combination of a protein kinase inhibitor and an additional chemotherapeutic agent” (Merck Patent GmbH, priority 2016, dated 2022)
Like-named read-outs stand apart in the source and are kept apart here.

Columns and labels:
[1] = test system: myeloid and lymphoid cells; assay: Hematology study, blood cell counts in immunocompetent mice; assay type: in vivo, mouse; conditions: addition of Compound 1 to etoposide/cisplatin
Description: For efficacy xenograft study 1014-1-58/BKU00105 female CD1 nu/nu mice [internal Batch ID 04108; Charles River Laboratories, Sulzfeld, Germany], aged 6-8 weeks, were used. For the hematology study 1015-1-3/BKU00106 immunocompetent female CD1 mice [internal Batch ID1406; Janvier Labs, Genest-Saint-Isle, France], aged 12 weeks were used. The mice were acclimatized to the housing conditions for 1 week. They were kept in groups of 10 in polysulfone cages Type III (42.5×26.6×15.5 cm; Techniplast, Hohenpeissenberg). Bedding consisted of aspen chips (E. Becker, Castrop-Rauxel). Room temperature was 24+/−2° C. and relative humidity was 50+/−10% at 15 air changes per hour. Drinking water (provided ad libitum) was supplemented with 1 mg/mL Chlorine and was adjusted to a pH of 6.5 with HCl. […]
The hematology data were evaluated by RM-ANOVA and Bonferroni multiple comparisons post test comparing the blood cell counts of the respective combination groups to the blood cell counts of the SoC only treatment group.
In parallel with the antitumor effect of the etoposide/cisplatin/Compound 1 combination, the effect on myeloid and lymphoid cells was investigated in immunocompetent mice (refer to ONC1015-1-3AZ). […] Blood cell count was determined under treatment (days 5 and 11) and during recovery (days 18 and 24).

[2] = biological target: DNA-PK (Homo sapiens, UniProt P78527); assay: crystallographic and enzyme kinetics studies; assay type: biochemical
[3] = test system: FaDu; assay: AlamarBlue viability assay; assay type: cell-based, human
Procedure: (§1) Compound 1 in combination with etoposide or cisplatin was tested in the following cancer cell lines for inhibition of tumor cells: human lung carcinoma (NCI-H460), human glioblastoma (MO59K and MO59J), and human squamous cell carcinoma pharynx (FaDu). Details of the assay protocol and material utilized are set forth below.
(§2) Cells were plated in a volume of 180 μl/well in 96-well plates: (FaDu: 1000 cells/well (168 h); NCI-H460 3000 cells/well (72 h) and 1000 cells/well (168 h); MO59J: 5000 cells/well (72 h) and 2000 cells/well (168 h); MO59K: 2000c/well (72 h) and 1000 cells/well (168 h)) and incubated at 37° C. and relevant C02 for 24 h hours. 20 μl per well of medium including serial dilutions of Compound 1 and/or Etoposide or Cisplatin were added to the culture plates and the incubation was continued further for 3 days (72 h) or 7 days (168 h) at 37° C. and relevant CO2. Compound 1 was pre-incubated for 30 min before Etoposide or Cisplatin were added.
(§3) Cells were plated in 200 μl volume per well (FaDu: 1000 cells/well (168 h); NCI-H460 3000 cells/well (72 h) and 1000 cells/well (168 h); MO59J: 5000 cells/well (72 h) and 2000 cells/well (168 h); MO59K: 2000c/well (72 h) and 1000 cells/well (168 h)). After 24 h incubation at 37° C. Compound 1, Etoposide or Cisplatin were dispensed by using the Digital HP Dispenser D300 (and the included dispensing software). Plates were further incubated for 3 days (72 h) or 7 days (168 h) at 37° C. and relevant CO2.
(§4) At the end of the compound incubation period 20 μl AlamarBlue reagent was added per well and the 96-well plates were incubated further up to seven hours. Absorption was determined at 540 nm by using Tecan Reader Connect and Magelan 7.
(§5) 0% effect=cells treated with DMSO; −100% effect=no cells

[4] = test system: MO59J (DNA-PK deficient); assay: AlamarBlue viability assay; assay type: cell-based, human; conditions: compound incubation for 168 h
Procedure: as §1, §2, §3, §4, §5

[5] = test system: NCI-H460; assay: AlamarBlue viability assay; assay type: cell-based, human
Procedure: as §1, §2, §3, §4, §5

[6] = test system: panel of 93 cell lines; assay: SRB growth inhibition, 93 cell lines panel (summary); assay type: cell-based
Procedure: (§6) 90 μl of cells, after a 48-hour pre-growth period, were treated by mixing with 10 μl of the compound-containing media (resulting in a final DMSO concentration of 0.1%).
(§7) This is the drug concentration causing a 50% reduction compared to the net protein increase in control cells during the drug incubation period. In other words, G150 is IC50 corrected for time zero. […] TGI was calculated from Ti=Tz. […] It was calculated as 100×[(Ti−Tz)/Tz]=−50.
The * or ** mark the lowest or highest tested concentrations. […] Both uM and μM stand for micromolar.

[7] = test system: JIMT1; assay: Single agent activity, panel of 81 cancer cell lines plus PBMC; assay type: cell-based; conditions: Homo sapiens, JIMT-1
[8] = test system: COLO678; assay: as above; assay type: cell-based; conditions: Homo sapiens, COLO-678
[9] = test system: MT3; assay: cells; conditions: MT-3, read-out: GI50 of etoposide (±Compound 1)
Procedure: as §6, §7

[10] = test system: PLCPRF5; assay: cells; conditions: Homo sapiens, PLC-PRF-5, read-out: GI50 of etoposide (±Compound 1)
Procedure: as §6, §7

[11] = test system: DLD1; assay: cells; conditions: Homo sapiens, DLD-1, read-out: GI50 of etoposide (±Compound 1)
[12] = test system: HELA; assay: cells; conditions: Homo sapiens, read-out: GI50 of etoposide (±Compound 1)
[13] = test system: SF295; assay: SRB growth inhibition, 93 cell lines panel; conditions: Homo sapiens, SF-295, read-out: GI50 of etoposide (±Compound 1)
[14] = test system: SKNAS; assay: SRB growth inhibition, 93 cell lines panel; conditions: Homo sapiens, SK-N-AS, read-out: GI50 of etoposide (±Compound 1)
[15] = test system: SNB75; assay: SRB growth inhibition, 93 cell lines panel; conditions: Homo sapiens, SNB-75, read-out: GI50 of etoposide (±Compound 1)

GI50 [7]	GI50 [8]	GI50 [11]	GI50 [12]	GI50 [14]	Structure (SMILES)	blood cell reduction and recovery [1]	inhibition of DNA-PK, mode [2]	inhibition of viability, combination with etoposide [3]	combination effect with Etoposide on viability [4]	combination effect with cisplatin on viability [5]	inhibition of viability, combination with etoposide [5]	GI50 ([6]; read-out: Average GI50)	GI50 ([6]; read-out: Median GI50)	GI50 ([6]; read-out: Most resistant cell line (GI50))	GI50 ([6]; read-out: Most sensitive cell line (GI50))	GI50 [9]	GI50 [10]	GI50 [13]	GI50 [15]
–	–	–	–	–	COc1ccc([C@@H](O)c2cc(-c3ncnc4cc(N5CCOCC5)ccc34)c(F)cc2Cl)nn1 [Compound 1, (S)-[2-chloro-4-fluoro-5-(7-morpholin-4-yl-quinazolin-4-yl)-phenyl]-(6-methoxy-pyridazin-3-yl)-methanol]	did not significantly affect blood cell reduction nor the recovery phase	potent and selective ATP-competitive inhibitor	enhanced inhibition of viability	no such combination effect	No significant combination effect	enhanced inhibition of viability	–	–	–	–	–	–	–	–
> 10 µM	> 10 µM	1350 nM	2360 nM	2150 nM	COc1cc([C@@H]2c3cc4c(cc3[C@@H](O[C@@H]3O[C@@H]5CO[C@@H](C)O[C@H]5[C@H](O)[C@H]3O)[C@H]3COC(=O)[C@H]23)OCO4)cc(OC)c1O [Etoposide]	–	–	–	–	–	–	1700 nM	900 nM	> 10000 nM	38 nM	609 nM	6.25 µM	1160 nM	3.79 µM
